Measured values reported in paper PMC8222254, “Self-assembly of an anion receptor with metal-dependent kinase inhibition and potent in vitro anti-cancer properties” (Nature Communications, 2021).
Values joined by “and” are separate entries in the source; they are usually repeats but may differ in a detail not shown here. Equal values may be shown once.

How the values were obtained:
Test in all cases: Kinase inhibition screen, cell-free 33P ATP assay at 10 μM
Type in all cases: biochemical
[1] = biological target: 140 purified human kinases (Homo sapiens, UniProt P08069); settings: IGF-1R
Method in brief: (§1)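 Each complex tested in duplicate at 10 μM; cell-free radiometric assay using ^33P ATP on purified enzymes. Hits mapped by HGNC symbol onto the kinome tree.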

[2] = biological target: T1, 140 purified human kinases (Homo sapiens, UniProt O15264); settings: p38d MAPK
T1 sequence (O15264 1-365): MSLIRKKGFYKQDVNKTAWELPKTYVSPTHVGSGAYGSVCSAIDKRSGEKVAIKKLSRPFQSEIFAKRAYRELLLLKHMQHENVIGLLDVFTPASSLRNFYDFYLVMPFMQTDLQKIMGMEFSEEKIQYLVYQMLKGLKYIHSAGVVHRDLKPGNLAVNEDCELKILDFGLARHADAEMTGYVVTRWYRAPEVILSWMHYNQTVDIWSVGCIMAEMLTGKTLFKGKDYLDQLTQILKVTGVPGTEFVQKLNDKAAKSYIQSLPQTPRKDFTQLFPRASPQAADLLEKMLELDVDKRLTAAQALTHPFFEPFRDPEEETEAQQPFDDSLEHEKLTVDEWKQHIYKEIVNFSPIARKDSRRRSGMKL
Method in brief: as §1

[3] = biological target: 140 purified human kinases (Homo sapiens, UniProt Q15569)
Method in brief: as §1

[4] = biological target: 140 purified human kinases (Homo sapiens, UniProt Q16584)
Method in brief: as §1

[5] = biological target: T2, 140 purified human kinases (Homo sapiens, UniProt Q9NZJ5)
T2 sequence (Q9NZJ5 30-1116): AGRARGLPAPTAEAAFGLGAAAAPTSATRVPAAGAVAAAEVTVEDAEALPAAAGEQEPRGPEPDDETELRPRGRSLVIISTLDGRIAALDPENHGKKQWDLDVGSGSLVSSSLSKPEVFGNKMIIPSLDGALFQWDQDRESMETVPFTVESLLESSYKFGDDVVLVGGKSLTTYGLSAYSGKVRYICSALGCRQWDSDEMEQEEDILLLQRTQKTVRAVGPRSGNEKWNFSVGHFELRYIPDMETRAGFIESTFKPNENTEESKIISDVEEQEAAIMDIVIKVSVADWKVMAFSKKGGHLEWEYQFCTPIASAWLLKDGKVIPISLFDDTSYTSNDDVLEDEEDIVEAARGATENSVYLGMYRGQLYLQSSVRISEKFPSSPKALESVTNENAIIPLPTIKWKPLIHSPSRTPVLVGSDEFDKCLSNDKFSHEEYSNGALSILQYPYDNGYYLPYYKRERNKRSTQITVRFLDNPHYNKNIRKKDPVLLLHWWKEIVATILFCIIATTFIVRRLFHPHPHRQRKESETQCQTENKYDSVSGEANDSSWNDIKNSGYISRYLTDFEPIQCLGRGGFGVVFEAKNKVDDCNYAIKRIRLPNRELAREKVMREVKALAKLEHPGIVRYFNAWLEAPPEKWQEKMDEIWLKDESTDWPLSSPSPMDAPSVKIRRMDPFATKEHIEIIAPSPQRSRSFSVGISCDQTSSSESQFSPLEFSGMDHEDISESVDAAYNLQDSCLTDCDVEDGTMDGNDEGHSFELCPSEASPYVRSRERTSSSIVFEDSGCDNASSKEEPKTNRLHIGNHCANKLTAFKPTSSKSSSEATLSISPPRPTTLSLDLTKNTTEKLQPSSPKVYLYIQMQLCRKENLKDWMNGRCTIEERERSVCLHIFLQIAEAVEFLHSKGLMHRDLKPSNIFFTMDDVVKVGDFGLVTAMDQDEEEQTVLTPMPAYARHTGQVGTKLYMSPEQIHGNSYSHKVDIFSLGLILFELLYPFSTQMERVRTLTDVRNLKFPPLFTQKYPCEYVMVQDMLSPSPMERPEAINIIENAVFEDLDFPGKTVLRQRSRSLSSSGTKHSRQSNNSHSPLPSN
Method in brief: as §1

140 purified human kinases (Homo sapiens, UniProt Q16584), sequence (Q16584 whole entry): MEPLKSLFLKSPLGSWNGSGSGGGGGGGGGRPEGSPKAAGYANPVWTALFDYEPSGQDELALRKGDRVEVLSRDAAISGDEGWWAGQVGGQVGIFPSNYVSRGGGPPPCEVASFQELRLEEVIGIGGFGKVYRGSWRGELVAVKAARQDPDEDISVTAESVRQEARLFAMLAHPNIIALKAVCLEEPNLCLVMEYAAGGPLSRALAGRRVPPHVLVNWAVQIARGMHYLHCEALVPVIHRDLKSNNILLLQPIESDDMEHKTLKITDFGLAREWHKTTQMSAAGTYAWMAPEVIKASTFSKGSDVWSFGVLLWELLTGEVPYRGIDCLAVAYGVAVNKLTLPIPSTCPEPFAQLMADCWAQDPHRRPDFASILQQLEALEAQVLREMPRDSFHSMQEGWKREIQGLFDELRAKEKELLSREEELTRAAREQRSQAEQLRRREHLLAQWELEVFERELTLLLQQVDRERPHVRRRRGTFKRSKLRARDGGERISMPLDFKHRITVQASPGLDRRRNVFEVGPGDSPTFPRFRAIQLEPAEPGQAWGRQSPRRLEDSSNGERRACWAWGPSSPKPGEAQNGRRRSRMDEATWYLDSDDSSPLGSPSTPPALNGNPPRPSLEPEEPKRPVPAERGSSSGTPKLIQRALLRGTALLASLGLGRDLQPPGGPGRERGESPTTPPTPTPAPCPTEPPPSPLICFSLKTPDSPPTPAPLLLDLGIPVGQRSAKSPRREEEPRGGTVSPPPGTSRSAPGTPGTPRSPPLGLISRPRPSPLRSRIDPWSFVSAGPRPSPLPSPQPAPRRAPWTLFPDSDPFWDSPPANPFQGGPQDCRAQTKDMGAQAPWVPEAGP
140 purified human kinases (Homo sapiens, UniProt P08069), sequence (P08069 31-1367): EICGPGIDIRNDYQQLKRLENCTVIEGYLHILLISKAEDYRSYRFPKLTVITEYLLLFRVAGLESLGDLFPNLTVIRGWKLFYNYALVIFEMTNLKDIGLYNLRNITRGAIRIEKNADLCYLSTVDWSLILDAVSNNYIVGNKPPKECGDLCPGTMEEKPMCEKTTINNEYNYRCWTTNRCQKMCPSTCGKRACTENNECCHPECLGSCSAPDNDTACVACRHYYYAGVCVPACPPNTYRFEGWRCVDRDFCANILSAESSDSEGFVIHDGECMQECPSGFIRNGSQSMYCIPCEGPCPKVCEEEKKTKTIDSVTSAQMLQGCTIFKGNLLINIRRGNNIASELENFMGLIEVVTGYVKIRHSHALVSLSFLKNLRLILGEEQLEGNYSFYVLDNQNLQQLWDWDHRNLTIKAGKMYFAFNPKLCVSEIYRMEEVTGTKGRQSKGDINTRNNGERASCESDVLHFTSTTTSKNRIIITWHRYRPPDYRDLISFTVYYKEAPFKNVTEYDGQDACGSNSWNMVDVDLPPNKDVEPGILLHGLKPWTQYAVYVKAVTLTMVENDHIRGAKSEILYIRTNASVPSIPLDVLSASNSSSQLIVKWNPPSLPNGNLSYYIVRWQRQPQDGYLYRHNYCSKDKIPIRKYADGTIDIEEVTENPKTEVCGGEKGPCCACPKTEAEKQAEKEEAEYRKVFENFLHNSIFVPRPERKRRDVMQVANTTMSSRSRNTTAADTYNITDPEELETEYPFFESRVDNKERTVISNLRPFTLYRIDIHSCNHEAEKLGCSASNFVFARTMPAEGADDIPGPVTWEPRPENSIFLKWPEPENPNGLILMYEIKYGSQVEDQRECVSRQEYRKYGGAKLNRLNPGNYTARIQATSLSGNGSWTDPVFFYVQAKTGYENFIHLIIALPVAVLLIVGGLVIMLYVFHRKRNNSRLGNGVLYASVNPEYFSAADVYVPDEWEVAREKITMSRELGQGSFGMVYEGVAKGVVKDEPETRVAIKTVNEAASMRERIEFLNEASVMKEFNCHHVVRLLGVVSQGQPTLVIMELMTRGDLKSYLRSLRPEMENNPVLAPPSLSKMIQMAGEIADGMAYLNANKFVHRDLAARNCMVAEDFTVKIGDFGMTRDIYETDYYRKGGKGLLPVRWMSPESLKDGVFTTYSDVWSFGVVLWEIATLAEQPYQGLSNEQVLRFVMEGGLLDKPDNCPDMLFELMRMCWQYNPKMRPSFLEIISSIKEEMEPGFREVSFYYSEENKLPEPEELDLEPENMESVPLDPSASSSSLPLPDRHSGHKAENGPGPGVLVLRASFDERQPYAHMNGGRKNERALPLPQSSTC
140 purified human kinases (Homo sapiens, UniProt Q15569), sequence (Q15569 whole entry): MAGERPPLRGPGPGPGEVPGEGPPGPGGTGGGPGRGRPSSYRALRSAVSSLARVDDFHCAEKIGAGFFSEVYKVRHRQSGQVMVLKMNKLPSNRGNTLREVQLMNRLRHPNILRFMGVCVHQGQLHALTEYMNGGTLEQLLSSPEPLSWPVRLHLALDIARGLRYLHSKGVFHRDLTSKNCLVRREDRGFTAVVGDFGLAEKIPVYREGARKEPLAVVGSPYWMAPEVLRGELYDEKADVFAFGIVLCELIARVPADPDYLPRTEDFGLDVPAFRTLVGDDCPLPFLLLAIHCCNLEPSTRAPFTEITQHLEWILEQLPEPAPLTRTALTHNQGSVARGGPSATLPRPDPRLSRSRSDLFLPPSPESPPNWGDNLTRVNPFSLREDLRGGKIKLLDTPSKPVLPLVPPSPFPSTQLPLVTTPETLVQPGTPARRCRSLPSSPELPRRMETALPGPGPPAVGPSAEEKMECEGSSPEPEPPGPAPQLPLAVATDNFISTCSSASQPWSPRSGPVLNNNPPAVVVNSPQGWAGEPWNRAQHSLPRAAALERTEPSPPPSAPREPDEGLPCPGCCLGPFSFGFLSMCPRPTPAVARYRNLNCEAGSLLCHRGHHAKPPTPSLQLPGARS

CC(=O)[O-].CC(=O)[O-].CC(=O)[O-].CC(=O)[O-].CC(=O)[O-].CC(=O)[O-].[Zn+2].[Zn+2].[Zn+2].c1ccc(-c2csc(NCCN(CCNc3nc(-c4ccccn4)cs3)CCNc3nc(-c4ccccn4)cs3)n2)nc1.c1ccc(-c2csc(NCCN(CCNc3nc(-c4ccccn4)cs3)CCNc3nc(-c4ccccn4)cs3)n2)nc1 [[L2Zn3]6+]
% Inhibition, Mean [1]: 0.5%
mean % activity [1]: 100%
% activity ([1]; duplicate runs): 92% and 107%
% Activation, Mean value [2]: 4.4%
% Inhibition, Mean [2]: -4.4%
% Inhibition, Run 1 / Run 2 [2]: -6% and -2.8%
mean % activity [2]: 104%
% activity ([2]; duplicate runs): 106% and 103%
% Inhibition, Mean ([3]; TESK1): 25%
% Inhibition, Run 1 / Run 2 ([3]; TESK1): 34% and 17%
mean % activity ([3]; TESK1): 75%
% activity ([3]; TESK1, duplicate runs): 66% and 83%
% Inhibition, Mean ([4]; MLK3): 5%
% Inhibition, Run 1 / Run 2 ([4]; MLK3): 4% and 6%
mean % activity ([4]; MLK3): 95%
% activity ([4]; MLK3, duplicate runs): 96% and 94%
% Inhibition, Mean ([5]; EIF2AK3): 37%
% Inhibition, Run 1 / Run 2 ([5]; EIF2AK3): 45% and 29%
mean % activity ([5]; EIF2AK3): 63%
% activity ([5]; EIF2AK3, duplicate runs): 55% and 71%

[Cu+2].[Cu+2].[Cu+2].c1ccc(-c2csc(NCCN(CCNc3nc(-c4ccccn4)cs3)CCNc3nc(-c4ccccn4)cs3)n2)nc1.c1ccc(-c2csc(NCCN(CCNc3nc(-c4ccccn4)cs3)CCNc3nc(-c4ccccn4)cs3)n2)nc1 [[L2Cu3]6+]
% Inhibition Run 1 [1]: 0%
% Inhibition Run 2 [1]: 16.4%
% Inhibition, Mean [1]: 8%
mean % activity [1]: 92%
% activity ([1]; Run 1): 100%
% activity ([1]; Run 2): 83.6%
% Activation, Mean value [2]: 14%
% Inhibition Run 1 [2]: -9.9%
% Inhibition Run 2 [2]: -17.9%
% Inhibition, Mean [2]: -14%
mean % activity [2]: 114%
% activity ([2]; Run 1): 109.9%
% activity ([2]; Run 2): 117.9%
% Activity Run 1 ([2]; 10 µM): 109.90%
% Activity Run 2 ([2]; 10 µM): 117.90%
% Inhibition Run 1 ([3]; TESK1): 16.1%
% Inhibition Run 2 ([3]; TESK1): -16.2%
% Inhibition, Mean ([3]; TESK1): -0.05%
mean % activity ([3]; TESK1): 100%
% activity ([3]; TESK1, Run 1): 83.9%
% activity ([3]; TESK1, Run 2): 116.2%
% Inhibition Run 1 ([4]; MLK3): 94.9%
% Inhibition Run 2 ([4]; MLK3): 94.9%
% Inhibition, Mean ([4]; MLK3): 95%
mean % activity ([4]; MLK3): 5%
% activity ([4]; MLK3, Run 1): 5.1%
% activity ([4]; MLK3, Run 2): 5.1%
% Activity inhibition Mean ([4]; MLK3, 10 µM): 94.9%
% Activity inhibition Run 1 ([4]; MLK3, 10 µM): 94.9%
% Activity inhibition Run 2 ([4]; MLK3, 10 µM): 94.9%
% Activity remaining Run 1 ([4]; MLK3, 10 µM): 5.10%
% Activity remaining Run 2 ([4]; MLK3, 10 µM): 5.10%
% Inhibition Run 1 ([5]; EIF2AK3): 39.9%
% Inhibition Run 2 ([5]; EIF2AK3): 30.4%
% Inhibition, Mean ([5]; EIF2AK3): 35%
mean % activity ([5]; EIF2AK3): 65%
% activity ([5]; EIF2AK3, Run 1): 60.1%
% activity ([5]; EIF2AK3, Run 2): 69.6%
